Test results taken from ChEMBL document CHEMBL4673339, “Immunomodulatory Constituents of Conocephalum conicum (Snake Liverwort) and the Relationship of Isolepidozenes to Germacranes and Humulanes” (J Nat Prod, 2020).
The source made the active and inactive calls. The calls are words filed in the database; no cut-off is given here.

How the values were obtained:
Splenocyte [1] = assay: Immunomodulatory activity in Wistar rat splenocytes assessed as decrease in LPS-induced cell proliferation at 0.1 to 100 uM after 48 hrs by MTT assay; format: functional, cell-based; conditions: dose 0.1-100 µM
Splenocyte [2] = assay: Immunomodulatory activity in Wistar rat splenocytes assessed as decrease in ConA-induced cell proliferation at 0.1 to 500 uM after 48 hrs by MTT assay; format: functional, cell-based; conditions: dose 0.1-500 µM
[3] = Cytotoxicity against Wistar rat splenocytes assessed as cell viability at >10 uM after 24 to 48 hrs by MTT assay; format: tissue-based; conditions: splenocyte, time 24-48 hrs
[4] = Cytotoxicity against Wistar rat splenocytes assessed as reduction in cell viability at 100 to 500 uM after 24 hrs by MTT assay; format: tissue-based; conditions: splenocyte, dose 100-500 µM
Splenocyte [5] = assay: Immunomodulatory activity in Wistar rat splenocytes assessed as decrease in LPS-induced cell proliferation at 500 uM after 48 hrs by MTT assay; format: functional, cell-based
Splenocyte [6] = assay: Immunomodulatory activity in Wistar rat splenocytes assessed as decrease in LPS-induced cell proliferation at 0.1 to 10 uM after 48 hrs by MTT assay; format: functional, cell-based; conditions: dose 0.1-10 µM
[7] = Cytotoxicity against Wistar rat splenocytes assessed as cell viability at 0.1 uM after 48 hrs by MTT assay; format: tissue-based; conditions: splenocyte
[8] = Cytotoxicity against Wistar rat splenocytes assessed as reduction in cell viability at 100 uM after 48 hrs by MTT assay relative to control; format: tissue-based; conditions: splenocyte
[9] = Cytotoxicity against Wistar rat splenocytes assessed as cell viability at 100 uM after 48 hrs by MTT assay relative to control; format: tissue-based, Splenocyte; conditions: read-out: Activity
[10] = Cytotoxicity against Wistar rat splenocytes assessed as reduction in cell viability at 0.1 to 500 uM after 48 hrs by MTT assay; format: tissue-based; conditions: splenocyte, dose 0.1-500 µM

Row | Structure (SMILES) | Activity (Splenocyte [1]) | Activity (Splenocyte [2]) | Activity [3] | Activity [4] | Activity (Splenocyte [5]) | Activity (Splenocyte [6]) | Activity [7] | Activity [8] [%] | viability at 48 h, 100 µM [9] [%] | Activity [10]
1 | C/C1=C\[C@@H]2[C@@H](CC/C(CO)=C/CC1)C2(C)C (relative stereo) | inactive | Active | Toxic | Toxic |  |  |  |  |  | 
2 | C[C@H]1CCC2=C(C(C)(C)O)CC(C)(C)C[C@@H]21 (relative stereo) |  | Active |  | Toxic | inactive | Active | Non-Toxic |  |  | 
3 | C[C@@H]1C[C@H]2[C@@H]3CCC4=CC(=O)C=C[C@]4(C)[C@@]3(F)[C@@H](O)C[C@]2(C)[C@@]1(O)C(=O)CO [DEXAMETHASONE] |  |  |  |  |  |  |  | 65 |  | 
4 | C[C@@H]1/C=C/[C@H](C(C)(C)O)CC/C(CO)=C/CC1 (relative stereo) |  | Active | Toxic | Toxic | inactive | Active |  |  |  | 
5 | C[C@@H]1/C=C/C(C)(C)[C@H](O)CC/C(CO)=C/CC1 (relative stereo) |  | Active |  | Toxic | inactive | Active |  |  | 60 | Toxic
